# Assay: Calculated average steady-state plasma (Eq. 1) and expected vitreal concentrations (Eq. 3)
# Design: species or system human
# Conditions: for Calc. Cv: expected vitreal, Eq. 3; for Css,av: plasma, Eq. 1
# Experimental: The concentrations of statins and their metabolites in the vitreous were analysed (see above) and expressed as ng/mL concentrations. These concentrations were compared to published statin concentrations in plasma. […] Maximum concentrations in plasma and the area under the concentration vs time curve values were collected. The expected average statin concentrations in plasma during multiple dose treatment were calculated for the doses that the patients received in our study (Eq. 1):1 Css,av=AUCsingledose/τ where τ is the time interval between doses. The drug concentrations in plasma (C, Cmax, Css, av) include both unbound (Cu) and protein-bound drug. The values for protein binding were obtained from the summary of drug product characteristics for each statin. The free fraction of statin in plasma was calculated based on Eq. (2):2 fu=CuC
# The expected drug concentrations in the patients’ vitreous samples were calculated according to Eq. (3)3 Cv=fu×Css,av
# Equation (3) assumes that the vitreal drug concentrations equilibrate with the unbound drug concentrations in plasma, because only free drug is expected to cross the blood-ocular barriers.
structure (smiles),measurement,setting,value
CC(C)c1nc(N(C)S(C)(=O)=O)nc(-c2ccc(F)cc2)c1/C=C/[C@@H](O)C[C@@H](O)CC(=O)O [Rosuvastatin],Calc. Cv,"10 mg/d, China study [30]",0.513 ng/mL
same,Calc. Cv,"10 mg/d, Germany study [31]",0.242 ng/mL
same,Calc. Cv,"20 mg/d, Chinese study [30]",0.883 ng/mL
same,Calc. Cv,"20 mg/d, UK study [32]",0.314 ng/mL
same,"Css,av","10 mg/d, China study [30]",4.27 ng/mL
same,"Css,av","10 mg/d, Germany study [31]",2.02 ng/mL
same,"Css,av","20 mg/d, Chinese study [30]",7.36 ng/mL
same,"Css,av","20 mg/d, UK study [32]",2.62 ng/mL
